For this assay, the target named is DNA-PK (Homo sapiens, UniProt P78527). The experiment in a line: SelectScreen Z'LYTE. In kind it is biochemical. Also noted: purchased Thermo Fisher Scientific (Life Technologies) SelectScreen. The settings on record: ATP Km app. How it is done:
The in vitro kinase selectivity of NU5455 was determined using the SelectScreen Broad Assay Panel (Thermo Fisher Scientific) involving activity and binding assays (Supplemental Table 1). […] Class IA PI3Ks were measured using the p85α subunit.
Kinase [ATP] % Assay Kinase [ATP] % Assay Kinase [ATP] % Assay Kinase [ATP] % Assay
DNA-PK Km app 98.3 Z LATS2 n/a 4.7 L KIT D820E n/a 1.3 L GSK3B (GSK3 beta) Km app -2.5 Z
PIK3C3 (hVPS34) Km app 85.9 A PRKCZ (PKC zeta) Km app 4.7 Z GRK1 n/a 1.3 L BMPR2 n/a -2.5 L
PIK3C2B (PI3K-C2 beta) 10 28.9 A FGFR1 Km app 4.7 Z BRSK2 n/a 1.2 L CDC42 BPB (MRCKB) Km app -2.5 Z
SNF1LK2 Km app 26.6 Z MINK1 Km app 4.6 Z NUAK1 (ARK5) Km app 1.2 A AMPK (A2/B2/G2) n/a -2.6 L
HCK Km app 18.0 Z CSF1R (FMS) Km app 4.3 Z CDK9/cyclin K n/a 1.0 L PRKG1 Km app -2.7 Z
NEK2 Km app 17.8 Z CSNK1G3 (CK1 gamma 3) Km app 4.2 Z NUAK2 n/a 1.0 L KIT T670E n/a -2.8 L
ALK Km app 17.3 Z STK32C (YANK3) n/a 4.2 L CDK2/cyclin O n/a 0.9 L ERBB4 (HER4) Km app -2.8 Z
FGFR3 K650M n/a 16.5 L STK22D (TSSK1) Km app 4.2 Z CAMKK2 (CaMKK beta) n/a 0.9 L PLK4 n/a -2.8 L
SIK3 n/a 16.1 L TAOK3 (JIK) n/a 4.2 L FGFR3 Km app 0.9 Z GRK7 Km app -3.0 Z
LYN A Km app 15.2 Z RPS6KA4 (MSK2) Km app 4.2 Z ULK2 n/a 0.9 L MAPKAPK2 Km app -3.1 Z
BMPR1B (ALK6) n/a 14.5 L PTK2B (FAK2) Km app 4.2 Z KIT D816V n/a 0.9 L FGFR4 Km app -3.1 Z
INSRR (IRR) Km app 14.1 Z CLK2 Km app 4.1 Z CAMK1 (CaMK1) 10 0.8 A CASK n/a -3.1 L […]

For orientation: % inhibition means the drop in the measured response relative to a control, in per cent. A lower % inhibition goes with a response near the control. What is called inhibition is the change of the read-out against control, counted positive when it falls. Low readings indicate a weak effect, high ones a strong effect. Regarding `CN(C(=O)CN1CCOCC1)c1ccc2sc3c(-c4cccc5c(=O)cc(N6CC7CCC(C6)O7)oc45)cccc3c2c1` [NU5455], at 1 µM the inhibition was 98.3%. For the setting “1 µM”, the “% inhibition” value is on record as 98%.

The values above are taken from article PMC6934184, “Selective DNA-PKcs inhibition extends the therapeutic index of localized radiotherapy and chemotherapy” (The Journal of Clinical Investigation, 2019).
